Reference: patent publication US7371730B2, “Crystals of glucopyranosyloxybenzyl benzene derivative” (Kissei Pharmaceutical Co., Ltd., priority 2002, dated 2008)

Experiment: Stability test (storage; HPLC residual percentage and X-ray powder diffraction)
Format: physicochemical
Details: storage 40° C./75% RH, 2 months, stopper tightly, and 60° C.
Description: Stability tests were carried out under the following conditions for crystalline forms α and β. Residual percentages of test substances were determined by HPLC, and changes in crystalline form were examined by X-ray powder diffraction analysis.
• detection; 225 nm • column; Inertsil ODS-3 • column temperature; 30° C. • mobile phase; 0.02 mol/L phosphate buffer (pH 3.0): acetonitrile=58:42→30:70 • flow rate; 1.0 mL/min. Storage conditions: • 1) 40° C./75% RH, 2 months, stopper tightly • 2) 60° C., 2 months, stopper tightly

CCOC(=O)OC[C@H]1O[C@@H](Oc2ccccc2Cc2ccc(OC)cc2)[C@H](O)[C@@H](O)[C@@H]1O [crystalline form α, 2-(4-methoxybenzyl)phenyl 6-O-ethoxycarbonyl-β-D-glucopyranoside]
changes in crystalline form (X-ray powder diffraction analysis): no change | residual percentage of test substance (HPLC): no change
